Results reported in patent US20150353626A1, “APOLIPOPROTEIN A-I DERIVED PEPTIDES FOR TREATMENT OF HYPERGLYCAEMIA” (priority 2013, published 2015).

Key:
GLUT4 = GLUT4 translocation to plasma membrane in primary FDB muscle fibers (HA immunofluorescence, ex vivo); format: cell-based; details: FDB fibers of HA-GLUT4-GFP mouse, 60 minutes, insulin 100 nmol/l, FIGS. 1d/7d, 4c/9a
Procedure: To support the glucose uptake observations described in Example 2, the ability of rHDL and the 190-243 polypeptide fragment (SEQ ID NO:1) to increase the amount of GLUT4 in the plasma membrane was assessed by immunofluorescence microscopy of intact primary skeletal flexor digitorum brevis (FDB) muscle fibers, isolated from a transgenic mouse model with muscle-specific HA-GLUT4-GFP expression (Lizunov et al. (2012) Am J Physiol Endocrinol Metab 302: E950-960). The HA epitope present on the first exofacial loop of the HA-GLUT4-GFP construct allows detection of GLUT4 inserted into the plasma membrane. Intact FDB fibers were incubated ex vivo with rHDL followed by fixation and HA antibody labeling of non-permeabilized cells as described below.
Two to five transgenic mice (C57/Bl6; 10-14 weeks) with muscle specific HA-GLUT4-GFP expression (gift from S. Cushman) (Lizunov et al. (2012) Am J Physiol Endocrinol Metab 302: E950-960), were used for each condition. The animals were euthanized and flexor digitorum brevis (FDB) muscles dissected out and incubated with oxygenated Krebs-Henseleit carbonate Hepes (KRBH) buffer (6 mmol/l KCl, 1 mmol/l Na2HPO4, 0.2 mmol/l NaHPO4, 1.4 mmol/l MgSO4, 1 mmol/l CaCl2, 128 mmol/l NaCl, 10 mmol/l HEPES pH 7.4) with 0.5% (w/v) bovine serum albumin. […]

[1] = Circular dichroism spectroscopy, alpha-helical content; format: physicochemical; details: 0.2 mg/ml in PBS pH 7.4, 25° C.
Procedure: CD measurements were performed on a Jasco J-810 spectropolarimeter equipped with a Jasco CDF-4265 Peltier set to 25° C. ApoA-I (full-length and the 190-234 polypeptide fragment) was diluted to 0.2 mg/ml in PBS (final concentration was 25 mmol/l phosphate, 25 mmol/l NaCl, pH 7.4), placed in a 0.1 mm quartz cuvette and, after extensive purging with nitrogen, scanned in the region 200 to 260 nm (scan speed was 20 nm/min). Averages of five scans were baseline-subtracted (PBS; 25 mmol/l phosphate, 25 mmol/l NaCl) and the alpha-helical content was calculated from the molar ellipticity at 222 nm as previously described (Petrlova et al. (2012) J Lipid Res 53: 390-398).

rat adipocytes = assay: Glucose uptake in isolated rat adipocytes; format: cell-based; details: insulin 100 nmol/l, 190-243 fragment 30 μg/ml, FIG. 9b
Procedure: Adipose cells were prepared as previously described (Rodbell (1964) J Biol Chem. 239: 375-80). In brief, epidydymal fat pads were minced and digested in Krebs-Ringer-bicarbonate-HEPES (KRBH) buffer, pH 7.4, containing 10 mM sodium bicarbonate, 30 mM HEPES, 200 nM adenosine, 1% bovine serum albumin (BSA) with 1 mg/ml collagenase. After digestion, the cells were filtered through nylon mesh (250 μm) and washed with KRBH-buffer.
Isolated rat adipocytes were treated for 60 min with insulin (100 nmol/l), 190-243 polypeptide fragment (having the amino acid sequence consisting of SEQ ID NO:1) (30 μg/ml) or 1-243 human apoA-I protein (150 μg/ml) followed by glucose uptake measurement by addition of UC14 tracer glucose (Perkin Elmer) (30 min). The uptake was terminated by centrifugation through dinonyl phtalate oil. Incubation with Cytochalasin B was used to subtract unspecific background binding. Amount of glucose was detected as count radioactivity measured by Beta CounterThe amount of glucose transported was measured using an isotope labeled UC14-assay.

AMPK = assay: Western blot for phosphorylated AMPK in L6 myotube lysates; format: cell-based; details: L6 myotubes, 60 minutes; 2, 10 or 20 μmol/l 190-243 peptide; FIG. 8c
Procedure: Prior to stimulation or treatment cultured myoblast cells were serum starved for 4 hours in serum-free α-MEM and all subsequent treatments, including insulin or phenformin as positive controls (Sigma), were performed in serum free a-MEM. After treatments, cells were washed with ice cold PBS buffer and lysed on ice using a non-denaturing lysis buffer (1% Triton X-100, 50 mmol/l Tris, 150 mmol/l NaCl, pH 8.0) containing protease and phosphatase inhibitors (Roche). Lysates were centrifuged at 16,000×g, 20 minutes at 4° C. and BCA protein assay (Pierce) was performed on supernatants. Equal protein amounts were separated by SDS-PAGE and transferred to nitrocellulose membranes. pAMPK, AMPK, pACC, pAkt, Akt and tubulin were used for immunodetection with IRDye 800CW and 680RD secondary antibodies (LI-COR). Blots were imaged using the Odyssey Fc system and quantified using Image studio v2.0 software.
To dissect the effect of discoidal rHDL on a non-insulin dependent signaling pathway, we conducted western blotting using lysates from L6 myotubes incubated with rHDL. […] Phenformin was used as a positive control, inducing a 1.98±0.33-fold (p=≦0.05) and 2.7±0.74-fold (p=≦0.05) elevation of phosphorylated AMPK and ACC, respectively, at a concentration of 0.4 mmol/l. […] Representative immunoblots of those quantified for FIGS. 3a, c and f are given in FIGS. 3b, d and e, respectively. […]

Row | Substance | GLUT4 in the sarcolemma plasma membrane (HA signal, in words) (GLUT4) | helical content from molar ellipticity at 222 nm [1] [%] | glucose uptake in adipocytes (in words) (rat adipocytes) | levels of phosphorylated AMPK (in words) (AMPK)
1 | 190-243 polypeptide fragment: polypeptide fragment consisting of amino acids 190-243 of the full-length human apoA-I protein, C-terminal domain, 54-mer, recombinant (AEYHAKATEHLSTLSEKAKPALEDLRQGLLPVLESFKVSFLSALEEYTKKLNTQ; listed as Homo Sapiens) | greater membrane levels of GLUT4 protein | 28 | significantly induced | increased levels of phosphorylated AMPK
2 | insulin | induced translocation of GLUT4 into the sarcolemma plasma membrane |  | significantly induced | 
